From patent US20120214743A1, “ITCH SUPPRESSANT” (University of Occupational and Environmental Health, Japan, priority 2009, published 2012)
Ends that are not written are not given here. * marks the point of attachment. SO3H = O=S(=O)(O)*

Key:
[1] = test system: normal human keratinocytes (NHEKs); test: DNA microarray of mRNA expression in stimulated normal human keratinocytes; assay type: cell-based; conditions: histamine 10 μM/mL, SLIGRL-NH2 100 nM
Description: For DNA microarray analysis, total RNA was extracted from NHEKs with the RNeasy Mini Kit (QIAGEN, Valencia, Calif.). Images obtained from a plate reader were analyzed with DNASIS Array (DNA CHIP RESERCH Inc., Hitachi Software Engineering, Tokyo, Japan), according to the manufacturer's instructions.
The values are log2 (mRNA expression level of each stimulated sample/expression level of the control).

ICR mice = test: SP-induced scratch behavior in ICR mice; assay type: in vivo, mouse; conditions: transdermal, 0.5 nmol/site in acetone/olive (3:1), tape-stripped skin, 3-4 minutes before SP 100 nmol/site intradermal; FIG. 3
Description: Since it is considered that external administration of CCK affects keratinocytes, at first, CCK2R agonist was administered transdermally (applying the solution prepared using acetone-olive (3:1)) to itch-related behavior model (ICR mice administered intradermally with SP (100 nmol)).
The hair was clipped over the rostral part of the murine back one or two days prior to experiment. Before behavioral recording, each mouse (4 animals per observation) was put into an acrylic cage (18×23×11 cm) for at least 1 hr for acclamation. An intradermal injection of SP (100 nmol in normal saline per site) induces scratching of the skin around the injected site by the hind paws in mice. CCKs were topically applied in the two ways, percutaenous application and intradermal injection. For percutaneous application, the shaved back skin was stripped with Scotch tape (3M) 6 times the day before the experiment. The mice were painted on the clipped back with 20 μL CCK (0.5 nmol/site) in acetone/olive (3:1) 3-4 minutes before SP injection (100 nmol/site). […] Immediately after treatment, the animals were put back into the same cage and their behavior was videotaped using a digital video camera for 40 minutes. The frequency of scratch toward the injected site by hind paws was counted for the first 20 minutes with the video.

CCK2R = test: Western blotting of CCK2R in ICR mouse keratinocytes incubated with SP; assay type: cell-based; conditions: exposed to SP for 5 or 6 hours, FIG. 2a
Description: (§1) Keratinocytes from ICR mice were stimulated with SP (10^−8 M) in six-well plates (Corning Glass Works) for 0.5-24 hours, harvested with a rubber policeman, and subjected to extraction with RIPA buffer (Wako, Osaka, Japan; Tris-HCl (pH8.0), 150 mm sodium chloride, 0.5% (wt/vol) sodium deoxycholate, 0.1% (wt/vol) SDS, and 1.0% (wt/vol) NP-40 substitute). Protein samples (20 μg) were separated by 8% SDS-polyacrylamide gel electrophoresis and electroblotted onto polyvinylidene difluoride membranes for 2 hours at 180 mA. After blocking with skim milk solution, the membranes were incubated with rabbit anti-mouse CCK1R (SC-33220; 1:1,000, Santa Cruz, Santa Cruz, Calif.) polyclonal antibodies,or CCK2R (SC-33221; 1:1,000, Santa Cruz) polyclonal antibodies, and the reaction was detected with horseradish peroxidase—conjugated goat anti-rabbit IgG (1:3,000, Bio-Rad, Hercules, Calif.). […] Bands were quantified by densitometry with the help of a CS Analyzer version 2.0 (ATTO, Tokyo, Japan). […]
(§2) To determine the effect of SP on keratinocytes, ICR mouse keratinocytes were incubated with SP for 30 min to 24 hours and the expression of CCK2R and CCK1R were analyzed by western blotting. CCK2R was detected with antibodies as 78 kDa band, and increased in keratinocytes exposed to SP for 5 or 6 hours (FIG. 2a). […]

CCK1R = test: Western blotting of CCK1R in ICR mouse keratinocytes incubated with SP; assay type: cell-based; conditions: SP 30 min to 24 hours, FIG. 2b
Description: as §1, §2

`NCCc1c[nH]cn1` [histamine, Histamine] was tested, and the “ACTL7B mRNA, log2 (expression level of stimulated sample/expression level of the control)” value ([1]; NHEKs, Ca 0.6 mM, SP 10^−6 M) was 0.63 log2, the “ANKRD6 mRNA, log2 (expression level of stimulated sample/expression level of the control)” value ([1]; NHEKs, Ca 0.6 mM, SP 10^−6 M) was 0.00 log2 and the “BUB1B mRNA, log2 (expression level of stimulated sample/expression level of the control)” value ([1]; NHEKs, Ca 0.6 mM, SP 10^−6 M) was −1.09 log2. The “CCK2R mRNA, log2 (expression level of stimulated sample/expression level of the control)” value ([1]; NHEKs, Ca 0.6 mM, SP 10^−6 M) was −0.01 log2, the “CKM mRNA, log2 (expression level of stimulated sample/expression level of the control)” value ([1]; NHEKs, Ca 0.6 mM, SP 10^−6 M) was 1.04 log2 and the “F10 mRNA, log2 (expression level of stimulated sample/expression level of the control)” value ([1]; NHEKs, Ca 0.6 mM, SP 10^−6 M) was 1.36 log2. For the same compound, the “FCN3 mRNA, log2 (expression level of stimulated sample/expression level of the control)” value ([1]; NHEKs, Ca 0.6 mM, SP 10^−6 M) was −0.23 log2, the “MAP3K1 mRNA, log2 (expression level of stimulated sample/expression level of the control)” value ([1]; NHEKs, Ca 0.6 mM, SP 10^−6 M) was 0.88 log2 and the “MMP9 mRNA, log2 (expression level of stimulated sample/expression level of the control)” value ([1]; NHEKs, Ca 0.6 mM, SP 10^−6 M) was 4.02 log2. The “NDRG4 mRNA, log2 (expression level of stimulated sample/expression level of the control)” value ([1]; NHEKs, Ca 0.6 mM, SP 10^−6 M) was 1.59 log2, the “PDE7B mRNA, log2 (expression level of stimulated sample/expression level of the control)” value ([1]; NHEKs, Ca 0.6 mM, SP 10^−6 M) was 0.12 log2 and the “PTN mRNA, log2 (expression level of stimulated sample/expression level of the control)” value ([1]; NHEKs, Ca 0.6 mM, SP 10^−6 M) was −0.14 log2. For the same compound, the “SERPINI2 mRNA, log2 (expression level of stimulated sample/expression level of the control)” value ([1]; NHEKs, Ca 0.6 mM, SP 10^−6 M) was 0.38 log2 and the “changes in the expression levels of CCK2R in stimulated NHEKs” value [1] was “no significant changes”.

“Asp-Tyr-Met-Gly-Trp-Met-Asp-Phe-NH2 (DYMGWMDF-NH2) [CCK8, cholecystokinin analogue in which the tyrosine is not sulfated]” was tested, and the “scratch behavior (frequency of scratch, first 20 minutes)” value (“scratch behavior” for short) (ICR mice) was “no significant reduction”.

“Met-Gly-Trp-Met-Asp-Phe-NH2 (MGWMDF-NH2) [CCK6, cholecystokinin analogue without the tyrosine]” was tested, and the “scratch behavior” value (ICR mice) was “no significant reduction”.

“Ser-Leu-Ile-Gly-Arg-Leu-NH2 (SLIGRL-NH2) [synthetic agonist of PAR-2]” was tested, and the “ACTL7B mRNA, log2 (expression level of stimulated sample/expression level of the control)” value ([1]; NHEKs, Ca 0.6 mM, SP 10^−6 M) was 0.84 log2, the “ANKRD6 mRNA, log2 (expression level of stimulated sample/expression level of the control)” value ([1]; NHEKs, Ca 0.6 mM, SP 10^−6 M) was −0.17 log2 and the “ARG1 mRNA, log2 (expression level of stimulated sample/expression level of the control)” value ([1]; NHEKs, Ca 0.6 mM, SP 10^−6 M) was 0.71 log2. The “BUB1B mRNA, log2 (expression level of stimulated sample/expression level of the control)” value ([1]; NHEKs, Ca 0.6 mM, SP 10^−6 M) was 0.52 log2, the “CCK2R mRNA, log2 (expression level of stimulated sample/expression level of the control)” value ([1]; NHEKs, Ca 0.6 mM, SP 10^−6 M) was 0.06 log2 and the “CYP17A1 mRNA, log2 (expression level of stimulated sample/expression level of the control)” value ([1]; NHEKs, Ca 0.6 mM, SP 10^−6 M) was 0.92 log2. For the same compound, the “FCN3 mRNA, log2 (expression level of stimulated sample/expression level of the control)” value ([1]; NHEKs, Ca 0.6 mM, SP 10^−6 M) was −0.62 log2, the “MAP3K1 mRNA, log2 (expression level of stimulated sample/expression level of the control)” value ([1]; NHEKs, Ca 0.6 mM, SP 10^−6 M) was 0.64 log2 and the “MMP9 mRNA, log2 (expression level of stimulated sample/expression level of the control)” value ([1]; NHEKs, Ca 0.6 mM, SP 10^−6 M) was 0.11 log2. The “PDE7B mRNA, log2 (expression level of stimulated sample/expression level of the control)” value ([1]; NHEKs, Ca 0.6 mM, SP 10^−6 M) was 1.00 log2, the “PTN mRNA, log2 (expression level of stimulated sample/expression level of the control)” value ([1]; NHEKs, Ca 0.6 mM, SP 10^−6 M) was 0.12 log2 and the “SERPINI2 mRNA, log2 (expression level of stimulated sample/expression level of the control)” value ([1]; NHEKs, Ca 0.6 mM, SP 10^−6 M) was 0.72 log2. The “changes in the expression levels of CCK2R in stimulated NHEKs” value [1] was “no significant changes”.

Substance P [SP] was tested, and the “ACTL7B mRNA, log2 (expression level of stimulated sample/expression level of the control)” value ([1]; NHEKs, Ca 0.6 mM, SP 10^−6 M) was 0.99 log2, the “ANKRD6 mRNA, log2 (expression level of stimulated sample/expression level of the control)” value ([1]; NHEKs, Ca 0.6 mM, SP 10^−6 M) was 3.20 log2 and the “AR mRNA, log2 (expression level of stimulated sample/expression level of the control)” value ([1]; NHEKs, Ca 0.6 mM, SP 10^−6 M) was 0.99 log2. For the same compound, the “ARG1 mRNA, log2 (expression level of stimulated sample/expression level of the control)” value ([1]; NHEKs, Ca 0.6 mM, SP 10^−6 M) was 1.69 log2, the “BUB1B mRNA, log2 (expression level of stimulated sample/expression level of the control)” value ([1]; NHEKs, Ca 0.6 mM, SP 10^−6 M) was 3.06 log2 and the “CCK2R mRNA, log2 (expression level of stimulated sample/expression level of the control)” value ([1]; NHEKs, Ca 0.6 mM, SP 10^−6 M) was 8.67 log2. The “CKM mRNA, log2 (expression level of stimulated sample/expression level of the control)” value ([1]; NHEKs, Ca 0.6 mM, SP 10^−6 M) was 1.72 log2, the “CLEC7A mRNA, log2 (expression level of stimulated sample/expression level of the control)” value ([1]; NHEKs, Ca 0.6 mM, SP 10^−6 M) was 1.16 log2 and the “CYP17A1 mRNA, log2 (expression level of stimulated sample/expression level of the control)” value ([1]; NHEKs, Ca 0.6 mM, SP 10^−6 M) was 1.40 log2. For the same compound, the “F10 mRNA, log2 (expression level of stimulated sample/expression level of the control)” value ([1]; NHEKs, Ca 0.6 mM, SP 10^−6 M) was 1.74 log2, the “FCN3 mRNA, log2 (expression level of stimulated sample/expression level of the control)” value ([1]; NHEKs, Ca 0.6 mM, SP 10^−6 M) was 4.50 log2 and the “ICAM1 mRNA, log2 (expression level of stimulated sample/expression level of the control)” value ([1]; NHEKs, Ca 0.6 mM, SP 10^−6 M) was 1.16 log2. The “MAP3K1 mRNA, log2 (expression level of stimulated sample/expression level of the control)” value ([1]; NHEKs, Ca 0.6 mM, SP 10^−6 M) was 1.06 log2, the “MMP9 mRNA, log2 (expression level of stimulated sample/expression level of the control)” value ([1]; NHEKs, Ca 0.6 mM, SP 10^−6 M) was 1.12 log2 and the “NDRG4 mRNA, log2 (expression level of stimulated sample/expression level of the control)” value ([1]; NHEKs, Ca 0.6 mM, SP 10^−6 M) was 1.00 log2. For the same compound, the “PDE7B mRNA, log2 (expression level of stimulated sample/expression level of the control)” value ([1]; NHEKs, Ca 0.6 mM, SP 10^−6 M) was 1.02 log2, the “PTN mRNA, log2 (expression level of stimulated sample/expression level of the control)” value ([1]; NHEKs, Ca 0.6 mM, SP 10^−6 M) was 4.04 log2 and the “RASSF7 mRNA, log2 (expression level of stimulated sample/expression level of the control)” value ([1]; NHEKs, Ca 0.6 mM, SP 10^−6 M) was 1.82 log2. For the same compound, the “SERPINI2 mRNA, log2 (expression level of stimulated sample/expression level of the control)” value ([1]; NHEKs, Ca 0.6 mM, SP 10^−6 M) was 1.00 log2, the “SV2B mRNA, log2 (expression level of stimulated sample/expression level of the control)” value ([1]; NHEKs, Ca 0.6 mM, SP 10^−6 M) was 1.54 log2 and the “CCK2R expression (78 kDa band) in keratinocytes exposed to SP” value (CCK2R) was “increased”. The “CCK1R expression in keratinocytes exposed to SP” value (CCK1R) was “not augmented”.

In the case of “Tyr(SO3H)-Met-Gly-Trp-Met-Asp-Phe-NH2 (Y(SO3H)MGWMDF-NH2; N-terminus assumed; SMILES CSCC[C@H](NC(=O)[C@H](Cc1c[nH]c2ccccc12)NC(=O)CNC(=O)[C@H](CCSC)NC(=O)[C@@H](N)Cc1ccc(OS(=O)(=O)O)cc1)C(=O)N[C@@H](CC(=O)O)C(=O)N[C@@H](Cc1ccccc1)C(N)=O) [CCK7S, natural type cholecystokinin, tyrosine at seventh position from C-terminal sulfated]”, the “scratch behavior” value (ICR mice) is reported as “significant reduction”.

For “Tyr-Met-Gly-Trp-Met-Asp-Phe-NH2 (YMGWMDF-NH2) [CCK7, cholecystokinin analogue in which the tyrosine is not sulfated]”, the “scratch behavior” value (ICR mice) was “no significant reduction”.
